Assay results taken from article PMC11127902, “Rescuing tri-heteromeric NMDA receptor function: the potential of pregnenolone-sulfate in loss-of-function GRIN2B variants” (Cellular and Molecular Life Sciences: CMLS, 2024).
Read-outs that look alike come from different tables or passages of the source.

Tests used:
[1] = molecular target: T1, Tri-heteromeric GluN2A-wt/GluN2B-G689C (Rattus norvegicus, UniProt P35439+Q00959+Q00960, A876H/F846L/G689C/G856D/H848F/K857R/M851T/M860L/Q845K/V861L); type: cell-based; conditions: glutamate dose-response
T1 construct: expressed in transfected cells; host or cells: Xenopus laevis oocytes, mRNA injection
Text: (§1) Aliquots were thawed before each experiment.

[2] = system: Tri-heteromeric GluN2A-wt/GluN2B-G689C; type: cell-based, rat; conditions: compared to GluN2A-wt + GluN2B-wt tri-heteromeric channels
Text: as §1

[3] = molecular target: T2, Tri-heteromeric GluN2A-wt/GluN2B-G689S (Rattus norvegicus, UniProt P35439+Q00959+Q00960, A876H/F846L/G689S/G856D/H848F/K857R/M851T/M860L/Q845K/V861L); type: cell-based; conditions: glutamate dose-response
T2 construct: expressed in transfected cells; host or cells: Xenopus laevis oocytes, mRNA injection
Text: as §1

[4] = system: Tri-heteromeric GluN2A-wt/GluN2B-G689S; type: cell-based, rat; conditions: compared to GluN2A-wt + GluN2B-wt tri-heteromeric channels
Text: as §1

[5] = system: wt tri-heteromeric GluN2A-wt/GluN2B-wt NMDAR; conditions: glutamate, cited from earlier work
[6] = system: Mixed di-heteromeric GluN2A-wt/GluN2A-H485A; set-up: method as in PMID 24607230; conditions: glutamate; ref 8; cited from earlier work
[7] = system: Mixed di-heteromeric GluN2A-wt/GluN2A-S644G; set-up: method as in PMID 32577763; conditions: glutamate; ref 19; cited from earlier work
[8] = system: Mixed di-heteromeric GluN2A-wt/GluN2A-L812M; set-up: method as in PMID 24504326; conditions: glutamate; ref 39; cited from earlier work
[9] = system: Mixed di-heteromeric GluN2A-wt/GluN2A-M817V; set-up: method as in PMID 28126851; conditions: glutamate; ref 91; cited from earlier work
[10] = system: Mixed di-heteromeric GluN2B-wt/GluN2B-E413G; set-up: method as in PMID 27839871; conditions: glutamate; ref 21; cited from earlier work
[11] = system: Pure variant di-heteromeric GluN2A-P552R; set-up: method as in PMID 28095420; conditions: glutamate; di-heteromer section; cited from earlier work
[12] = system: Pure variant di-heteromeric GluN2A-S644G; set-up: method as in PMID 32577763; conditions: glutamate; di-heteromer section; cited from earlier work
[13] = system: Pure variant di-heteromeric GluN2A-M817V; set-up: method as in PMID 28126851; conditions: glutamate; ref 91; cited from earlier work
[14] = system: Pure variant di-heteromeric GluN2B-H486A; set-up: method as in PMID 24607230; conditions: glutamate; ref 8; cited from earlier work
[15] = system: Pure variant di-heteromeric GluN2B-A639V; set-up: method as in PMID 35110392; conditions: glutamate; ref 10; cited from earlier work
[16] = system: Pure variant di-heteromeric GluN2B-M818T; set-up: method as in PMID 28377535; conditions: glutamate; ref 25; cited from earlier work
[17] = system: Pure variant di-heteromeric GluN2B-A819T; set-up: method as in PMID 28377535; conditions: glutamate; ref 25; cited from earlier work
[18] = system: Pure variant di-heteromeric GluN2A-E551K; set-up: method as in PMID 35110392; conditions: glutamate; ref 10; cited from earlier work
[19] = system: Pure variant di-heteromeric GluN2A-L649V; set-up: method as in PMID 35110392; conditions: glutamate; ref 10; cited from earlier work
[20] = system: Mixed tri-heteromeric GluN2A-wt/ GluN2B-G543R; set-up: method as in PMID 35110392; conditions: glutamate; ref 10; cited from earlier work
[21] = system: Mixed tri-heteromeric GluN2A-wt/ GluN2B-A639V; set-up: method as in PMID 35110392; conditions: glutamate; ref 10; cited from earlier work
[22] = system: Mixed tri-heteromeric GluN2A-E551K/ GluN2B-wt; set-up: method as in PMID 35110392; conditions: glutamate; ref 10; cited from earlier work
[23] = system: Mixed tri-heteromeric GluN2A-L649V/ GluN2B-wt; set-up: method as in PMID 35110392; conditions: glutamate; ref 10; cited from earlier work
[24] = system: Mixed tri-heteromeric GluN2A-L812M/ GluN2B-wt; set-up: method as in PMID 35110392; conditions: glutamate; ref 10; cited from earlier work
[25] = system: Mixed tri-heteromeric GluN2A-M817V/ GluN2B-wt; set-up: method as in PMID 35110392; conditions: glutamate; ref 10; cited from earlier work
[26] = system: non-tagged purely di-heteromeric GluN2B-G689C; conditions: read-out: Glutamate EC50 (adapted from[16]); non-tagged human receptors; cited from earlier work
[27] = system: non-tagged purely di-heteromeric GluN2B-G689S; conditions: read-out: Glutamate EC50 (adapted from[16]); non-tagged human receptors; cited from earlier work
[28] = molecular target: Mixed di-heteromeric GluN2B-wt/GluN2B-G689C (Rattus norvegicus, UniProt P35439+Q00960, G689C); assay: TEVC in Xenopus oocytes; conditions: glutamate dose-response
Method: (§2) Two electrode voltage clamp (TEVC) recordings were carried out 24–72 h after mRNA injections, as previously described [17, 37]. We use a commercial amplifier (Warner Instruments, USA) and Digitizer (Digidata-1550B; Molecular Devices, USA), controlled by the pClamp10 software (Molecular Devices, USA). Electrode were made by pulling glass capillaries (Narishige, Japan) filled with 3 M KCl, into which we inserted chlorinated silver wires. […] For hERG channel recordings, oocytes were clamped at (− 60) mV for 1 s, followed by a voltage jump to 20 mV for 4 s, and an additional voltage jump to (− 50) mV for 6 s and return to baseline voltage (see Supplementary. 6f), as previously described [53].
(§3) When assessing potentiation by PS, all other solutions also included equal amounts of the DMSO carrier (0.2%).
(§4) Electrophysiology data were analyzed by Clampfit 11.2 (Molecular Devices, USA), plotted using GraphPad 8 or SigmaPlot 11(Systat software, Inc.). […] In all TEVC recordings in oocytes, the responses were normalized to current amplitude obtained from that individual cell. […] All data are shown as mean ± SEM. In all experiments N indicates the number of independent experiments, whereas n indicates the number of cells recorded. In each experiment, data underwent normality test prior to statistical assessment. Normally distributed data were assessed for significance by using paired t-test or one-way ANOVA for multiple group comparison and post hoc Tukey test or Dunnett's test. Similarly, in the case of non-normally distributed data significance was assessed by Mann Whitney test or Kruskal–Wallis ANOVA on ranks test followed by Dunn’s multiple comparison post hoc; n.s., non-significant; *p < 0.05; **p < 0.01; ***p < 0.001. […] Leak expression was evaluated by normalizing the maximal current (Imax) of each ER-retained NMDAR composition to Imax of control group (which was recorded in all experiments). Estimation of activation time constant (τ) for potentiated currents by PS, was performed by fitting PS- potentiated currents with a standard single-exponential function, from which we extracted the time constant (τ).

[29] = system: Mixed di-heteromeric GluN2B-wt/GluN2B-G689C; assay: TEVC in Xenopus oocytes; conditions: compared to purely di-heteromeric variant channels
Method: as §2, §3, §4

[30] = molecular target: Tri-heteromeric GluN2A-wt/GluN2B-wt (Rattus norvegicus, UniProt P35439+Q00959+Q00960, A876H/F846L/G856D/H848F/K857R/M851T/M860L/Q845K/V861L); assay: TEVC in Xenopus oocytes; conditions: glutamate dose-response
Sequence of Tri-heteromeric GluN2A-wt/GluN2B-wt (Q00959 23-1464, other chains not shown): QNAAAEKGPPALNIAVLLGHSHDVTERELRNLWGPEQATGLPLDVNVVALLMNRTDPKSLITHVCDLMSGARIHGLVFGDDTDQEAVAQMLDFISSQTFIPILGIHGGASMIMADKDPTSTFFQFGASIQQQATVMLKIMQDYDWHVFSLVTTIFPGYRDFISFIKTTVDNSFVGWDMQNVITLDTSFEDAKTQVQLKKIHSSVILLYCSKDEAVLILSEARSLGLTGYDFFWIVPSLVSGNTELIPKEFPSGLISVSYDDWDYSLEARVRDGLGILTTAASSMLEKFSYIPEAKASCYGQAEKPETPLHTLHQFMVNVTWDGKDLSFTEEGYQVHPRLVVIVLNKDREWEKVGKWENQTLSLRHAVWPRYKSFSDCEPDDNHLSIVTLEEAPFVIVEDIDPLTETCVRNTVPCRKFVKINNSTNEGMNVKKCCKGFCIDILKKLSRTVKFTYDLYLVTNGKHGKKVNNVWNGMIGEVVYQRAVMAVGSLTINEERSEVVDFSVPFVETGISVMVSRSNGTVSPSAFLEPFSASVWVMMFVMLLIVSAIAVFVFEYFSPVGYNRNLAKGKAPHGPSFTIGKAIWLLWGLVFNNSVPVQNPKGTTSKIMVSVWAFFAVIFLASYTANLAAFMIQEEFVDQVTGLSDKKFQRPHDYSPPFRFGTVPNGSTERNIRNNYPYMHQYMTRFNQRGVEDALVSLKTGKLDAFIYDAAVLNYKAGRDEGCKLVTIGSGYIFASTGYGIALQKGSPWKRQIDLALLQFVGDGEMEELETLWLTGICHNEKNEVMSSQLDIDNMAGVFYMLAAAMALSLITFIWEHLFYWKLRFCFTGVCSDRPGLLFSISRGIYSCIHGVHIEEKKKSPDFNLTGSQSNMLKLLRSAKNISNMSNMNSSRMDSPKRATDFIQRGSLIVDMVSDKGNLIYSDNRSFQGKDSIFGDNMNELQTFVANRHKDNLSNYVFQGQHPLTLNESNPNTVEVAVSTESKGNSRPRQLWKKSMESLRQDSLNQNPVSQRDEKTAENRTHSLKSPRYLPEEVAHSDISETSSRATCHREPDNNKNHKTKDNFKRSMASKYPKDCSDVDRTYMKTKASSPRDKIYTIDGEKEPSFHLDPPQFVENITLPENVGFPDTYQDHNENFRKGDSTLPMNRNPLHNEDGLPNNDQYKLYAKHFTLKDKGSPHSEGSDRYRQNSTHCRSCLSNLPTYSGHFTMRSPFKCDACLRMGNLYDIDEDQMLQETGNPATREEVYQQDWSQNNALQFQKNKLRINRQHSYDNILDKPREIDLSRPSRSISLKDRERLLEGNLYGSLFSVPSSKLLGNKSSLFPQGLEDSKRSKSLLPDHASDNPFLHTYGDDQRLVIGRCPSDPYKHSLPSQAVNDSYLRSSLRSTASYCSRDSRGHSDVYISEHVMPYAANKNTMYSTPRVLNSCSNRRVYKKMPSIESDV
Sequence of Tri-heteromeric GluN2A-wt/GluN2B-wt (Q00960+Q00959 fused with the stated changes, other chains not shown): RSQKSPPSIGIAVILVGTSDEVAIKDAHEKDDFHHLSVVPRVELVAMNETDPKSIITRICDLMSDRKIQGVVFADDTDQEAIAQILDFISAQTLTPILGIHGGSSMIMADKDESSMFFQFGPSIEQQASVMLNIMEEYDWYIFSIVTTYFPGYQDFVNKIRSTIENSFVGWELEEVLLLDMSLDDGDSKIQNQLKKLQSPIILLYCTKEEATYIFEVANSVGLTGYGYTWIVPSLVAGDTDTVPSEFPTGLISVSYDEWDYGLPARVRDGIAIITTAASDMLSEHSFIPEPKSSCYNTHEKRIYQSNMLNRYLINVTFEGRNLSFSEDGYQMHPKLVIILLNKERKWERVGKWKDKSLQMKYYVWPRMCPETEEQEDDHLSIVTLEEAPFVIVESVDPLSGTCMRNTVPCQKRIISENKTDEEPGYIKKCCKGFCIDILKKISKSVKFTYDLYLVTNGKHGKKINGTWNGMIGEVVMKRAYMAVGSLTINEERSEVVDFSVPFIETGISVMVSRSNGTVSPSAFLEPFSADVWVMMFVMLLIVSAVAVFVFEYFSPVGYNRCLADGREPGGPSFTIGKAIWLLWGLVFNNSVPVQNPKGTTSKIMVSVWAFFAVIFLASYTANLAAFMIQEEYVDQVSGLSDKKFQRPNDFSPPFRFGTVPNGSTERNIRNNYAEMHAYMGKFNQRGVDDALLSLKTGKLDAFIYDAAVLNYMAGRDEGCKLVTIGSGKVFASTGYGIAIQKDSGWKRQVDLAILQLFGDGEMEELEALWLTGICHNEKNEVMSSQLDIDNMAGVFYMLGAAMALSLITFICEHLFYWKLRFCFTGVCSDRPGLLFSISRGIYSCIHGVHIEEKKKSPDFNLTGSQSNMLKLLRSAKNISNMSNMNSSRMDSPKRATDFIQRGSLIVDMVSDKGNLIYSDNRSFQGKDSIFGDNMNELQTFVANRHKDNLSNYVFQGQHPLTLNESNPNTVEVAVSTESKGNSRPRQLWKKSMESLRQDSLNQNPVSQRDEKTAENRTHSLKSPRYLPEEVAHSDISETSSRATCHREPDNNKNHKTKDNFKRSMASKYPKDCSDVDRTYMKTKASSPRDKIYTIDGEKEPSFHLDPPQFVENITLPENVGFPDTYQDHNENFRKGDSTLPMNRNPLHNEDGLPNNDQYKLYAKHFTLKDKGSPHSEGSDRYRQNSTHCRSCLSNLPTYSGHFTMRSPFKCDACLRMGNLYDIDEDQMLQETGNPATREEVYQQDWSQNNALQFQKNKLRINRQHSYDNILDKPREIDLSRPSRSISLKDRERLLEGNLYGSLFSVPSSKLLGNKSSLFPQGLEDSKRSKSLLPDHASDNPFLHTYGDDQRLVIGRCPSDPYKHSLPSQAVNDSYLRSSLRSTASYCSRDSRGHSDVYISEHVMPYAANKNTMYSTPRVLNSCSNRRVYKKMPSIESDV
Method: as §2, §3
Electrophysiology data were analyzed by Clampfit 11.2 (Molecular Devices, USA), plotted using GraphPad 8 or SigmaPlot 11(Systat software, Inc.). […] In all TEVC recordings in oocytes, the responses were normalized to current amplitude obtained from that individual cell. […] All data are shown as mean ± SEM. In all experiments N indicates the number of independent experiments, whereas n indicates the number of cells recorded. In each experiment, data underwent normality test prior to statistical assessment. Normally distributed data were assessed for significance by using paired t-test or one-way ANOVA for multiple group comparison and post hoc Tukey test or Dunnett's test. Similarly, in the case of non-normally distributed data significance was assessed by Mann Whitney test or Kruskal–Wallis ANOVA on ranks test followed by Dunn’s multiple comparison post hoc; n.s., non-significant; *p < 0.05; **p < 0.01; ***p < 0.001. […] Leak expression was evaluated by normalizing the maximal current (Imax) of each ER-retained NMDAR composition to Imax of control group (which was recorded in all experiments). […]

Compound: N[C@@H](CCC(=O)O)C(=O)O [Glutamate, glutamate]
- Hill coefficient (nH) [1]: 0.85 ± 0.14 n.s (N = 1, n = 10)
- increase in EC50 [2]: ~ 300 fold
- Hill coefficient (nH) [3]: 1.06 ± 0.13 n.s (N = 1, n = 11)
- increase in EC50 [4]: ~ 600 fold
- EC50 ([5]; ref 8): 2.6 µM
- EC50 ([5]; ref 10): 2.2 µM
- EC50 [6]: 220 µM
- EC50 [7]: 0.7 µM
- EC50 [8]: 1 µM
- EC50 [9]: 1.1 µM
- EC50 [10]: 21 µM
- EC50 [11]: 0.64 µM
- EC50 [12]: 0.05 µM
- EC50 [13]: 0.47 µM
- EC50 [14]: 460 µM
- EC50 [15]: 0.28 µM
- EC50 [16]: 0.37 µM
- EC50 [17]: 0.58 µM
- EC50 [18]: 0.47 µM
- EC50 [19]: 0.05 µM
- EC50 [20]: 1.9 µM
- EC50 [21]: 0.58 µM
- EC50 [22]: 0.7 µM
- EC50 [23]: 0.36 µM
- EC50 [24]: 0.84 µM
- EC50 [25]: 0.75 µM
- EC50 [26]: 1500 ± 200 µM
- EC50 [27]: 2500 ± 400 µM
- Hill coefficient (nH) [28]: 0.75 ± 0.08 n.s (N = 6, n = 54)
- higher (improved) glutamate potency [29]: ~ four-fold
- Hill coefficient (nH) [30]: 0.77 ± 0.22 (N = 3, n = 33)
